Assay results as given in patent publication US20120134940A1, “NANODISPERSIONS” (priority 2006, published 2012).

Details: payload material itself
From the text: By selection of a carrier which is also soluble in both DMSO and one of water, ethanol and PPG (for example PVP/HPC) it is possible to obtain a nano-disperse form of either payload material in the carrier, which can be “dissolved” in water, ethanol or PPG.

- solubility in DMSO: soluble
- solubility in water, ethanol and poly-propylene glycol: insoluble
Compound: COc1cc(C=O)cc(-c2cc(C=O)cc(OC)c2O)c1O [divanillin]
